Marks after values point to notes of the source that are not given here.
System: female mice of the C57BL/6J strain
Assay: Lowering of serum cholesterol level in mice subjected to a fatty diet (single oral dose)
Format: in vivo
Conditions: total serum cholesterol; female C57BL/6J mice on fatty diet (1.25% cholesterol, 0.5% cholic acid); single dose 10 mg/kg by tubage
Method: The antiatheromatous activity of the compounds according to the invention was evaluated as a function of their ability to lower the serum cholesterol level in mice subjected to a fatty diet. […] This correlation affords a test which is more rapid than direct experiments on the atheromatous plaque, which require a lengthy treatment of the animals and an expensive histological study of the walls of the aortic arch.
The test used consists in administering a single dose of the compound to female mice of the C57BL/6J strain. The protocol is as follows: On the first day (D0), the mice are fasted from 9 am to 5 pm, a blood sample being taken at 2 pm. At 5 pm, a given amount of food (a fatty diet comprising 1.25% of cholesterol and 0.5% of cholic acid) is distributed. On the second day (D1), the food leftovers are weighed at 9 am and the mice are fasted from 9 am to 2 pm. A blood sample is taken at 2 pm. For the treated groups of mice, the compound is administered at 9 am on the second day (D1) by tubage in the form of a suspension in a 3% aqueous solution of gum. The control groups receive only the aqueous gum.
[…] The total serum cholesterol is assayed and the results are expressed as the percentage inhibition of the increase in cholesterolemia compared with the control group.

SMILES	Activity (%): percentage inhibition of the increase in cholesterolemia compared with the control group
CC(=O)O[C@@H]1[C@@H](OC(C)=O)[C@H](Oc2ccc(C(=O)c3ccc(C#N)cc3)cc2)OC[C@@H]1OC(C)=O [Example 18, [4-(4-Cyanobenzoyl)phenyl] 2,3,4-tri-O-acetyl-α-L-arabinopyranoside]	−2* %
N#Cc1ccc(C(=O)c2ccc(O[C@@H]3OC[C@H](O)[C@H](O)[C@H]3O)cc2)cc1 [Example 19, [4-(4-Cyanobenzoyl)phenyl] α-L-arabinopyranoside]	−31* %

Same assay, conditions: total serum cholesterol; female C57BL/6J mice on fatty diet (1.25% cholesterol, 0.5% cholic acid); single dose 100 mg/kg by tubage

SMILES	Activity (%): percentage inhibition of the increase in cholesterolemia compared with the control group [%]
CC(=O)O[C@@H]1[C@H](Oc2ccc(C(=O)c3ccc(C#N)cc3)cc2)OC[C@@H](OC(C)=O)[C@H]1OC(C)=O [Example 1, [4-(4-Cyanobenzoyl)phenyl] 2,3,4-tri-O-acetyl-β-D-arabinopyranoside]	−25
N#Cc1ccc(C(=O)c2ccc(O[C@@H]3OC[C@@H](O)[C@@H](O)[C@@H]3O)cc2)cc1 [Example 2, [4-(4-Cyanobenzoyl)phenyl] β-D-arabinopyranoside]	−29
N#Cc1ccc(C(=O)c2ccc(O[C@@H]3OC[C@@H](O)[C@H](O)[C@@H]3O)cc2)cc1 [Example 3, [4-(4-Cyanobenzoyl)phenyl] β-D-lyxopyranoside]	−28
CC(=O)O[C@H]1[C@H](Oc2ccc(C(=O)c3ccc(C#N)cc3)cc2)OC[C@@H](OC(C)=O)[C@H]1OC(C)=O [Example 4, [4-(4-Cyanobenzoyl)phenyl] 2,3,4-tri-O-acetyl-β-D-ribopyranoside]	−23
N#Cc1ccc(C(=O)c2ccc(O[C@@H]3OC[C@@H](O)[C@@H](O)[C@H]3O)cc2)cc1 [Example 5, [4-(4-Cyanobenzoyl)phenyl] β-D-ribopyranoside]	−36
CC(=O)OC[C@H]1O[C@@H](Oc2ccc(C(=O)c3ccc(C#N)cc3)cc2)[C@H](OC(C)=O)[C@@H](OC(C)=O)[C@H]1OC(C)=O [Example 6, [4-(4-Cyanobenzoyl)phenyl] 2,3,4,6-tetra-O-acetyl-β-D-galactopyranoside]	−33
N#Cc1ccc(C(=O)c2ccc(O[C@@H]3O[C@H](CO)[C@H](O)[C@H](O)[C@H]3O)cc2)cc1 [Example 7, [4-(4-Cyanobenzoyl)phenyl] β-D-galactopyranoside]	−32
CC(=O)OC[C@H]1O[C@@H](Oc2ccc(C(=O)c3ccc(C#N)cc3)cc2)[C@@H](OC(C)=O)[C@@H](OC(C)=O)[C@@H]1OC(C)=O [Example 8, [4-(4-Cyanobenzoyl)phenyl] 2,3,4,6-tetra-O-acetyl-β-D-mannopyranoside]	−17
N#Cc1ccc(C(=O)c2ccc(O[C@@H]3O[C@H](CO)[C@@H](O)[C@H](O)[C@@H]3O)cc2)cc1 [Example 9, [4-(4-Cyanobenzoyl)phenyl] β-D-mannopyranoside]	−39
CC(=O)O[C@@H]1[C@@H](OC(C)=O)[C@@H](Oc2ccc(C(=O)c3ccc(C#N)cc3)cc2)OC[C@@H]1OC(C)=O [Example 10, [4-(4-Cyanobenzoyl)phenyl] 2,3,4-tri-O-acetyl-β-L-arabinopyranoside]	−22
N#Cc1ccc(C(=O)c2ccc(O[C@H]3OC[C@H](O)[C@H](O)[C@H]3O)cc2)cc1 [Example 11, [4-(4-Cyanobenzoyl)phenyl] β-L-arabinopyranoside]	−31
CC(=O)O[C@@H]1[C@@H](Oc2ccc(C(=O)c3ccc(C#N)cc3)cc2)OC[C@H](OC(C)=O)[C@H]1OC(C)=O [Example 12, [4-(4-Cyanobenzoyl)phenyl] 2,3,4-tri-O-acetyl-β-L-xylopyranoside]	−45
N#Cc1ccc(C(=O)c2ccc(O[C@H]3OC[C@H](O)[C@@H](O)[C@@H]3O)cc2)cc1 [Example 13, [4-(4-Cyanobenzoyl)phenyl] β-L-xylopyranoside]	−45
CC(=O)O[C@@H]1[C@H](Oc2ccc(C(=O)c3ccc(C#N)cc3)cc2)OC[C@H](OC(C)=O)[C@H]1OC(C)=O [Example 14, [4-(4-Cyanobenzoyl)phenyl] 2,3,4-tri-O-acetyl-α-L-xylopyranoside]	−36
N#Cc1ccc(C(=O)c2ccc(O[C@@H]3OC[C@H](O)[C@@H](O)[C@@H]3O)cc2)cc1 [Example 15, [4-(4-Cyanobenzoyl)phenyl] α-L-xylopyranoside]	−32
CC(=O)O[C@@H]1[C@@H](OC(C)=O)[C@H](C)O[C@H](Oc2ccc(C(=O)c3ccc(C#N)cc3)cc2)[C@@H]1OC(C)=O [Example 16, [4-(4-Cyanobenzoyl)phenyl] 2,3,4-tri-O-acetyl-β-L-rhamnopyranoside]	−37
C[C@@H]1O[C@H](Oc2ccc(C(=O)c3ccc(C#N)cc3)cc2)[C@H](O)[C@H](O)[C@H]1O [Example 17, [4-(4-Cyanobenzoyl)phenyl] β-L-rhamnopyranoside]	−50

Reference: US20030100515A1, “Benzophenone glycopyranosides, preparation and therapeutic use” (priority 1999, published 2003)
